Legend:
BuChE = BuChE (Homo sapiens, UniProt P06276); assay: BuChE inhibition (data not shown); type: biochemical
Aβ1–42 = molecular target: T1, Aβ1–42 (Homo sapiens, UniProt P05067); assay: Inhibition of self-induced Aβ1–42 aggregation (ThT fluorescence assay); type: biochemical
T1 construct: Aβ1–42 (Sigma, St. Louis, MO, USA; counterion, NaOH) stock solution was prepared by dissolving Aβ1–42 peptide in ammonium hydroxide; purchased Sigma
Procedure: The formation and aggregation of Aβ1–42 in the brain leads to neurotoxicity in AD. In order to evaluate the activity of our new synthetic compounds to inhibit Aβ1–42 self-induced aggregation, the thioflavin (ThT) fluorescence assay was performed.
All ThT experiments were performed according to our previously published methods. Aβ1–42 (Sigma, St. Louis, MO, USA; counterion, NaOH) stock solution was prepared by dissolving Aβ1–42 peptide in ammonium hydroxide (1% v/v), and diluting with 20 mM phosphate buffer (pH 7.4) to 100 μM. The tested compounds were firstly dissolved in DMSO at a concentration of 10 mM, and then diluted with 20 mM phosphate buffer (pH 7.4) to 40 μM.
For the inhibition of self-induced Aβ1–42 aggregation. Aβ1–42 peptide (2 μL, 50 μM, final concentration) with the tested compound (2 μL, 20 μM, final concentration) or 20 mM phosphate buffer (2 μL) was incubated in 20 mM phosphate buffer (pH 7.4) at 37 °C for 72 h. After incubation, the samples were diluted to a final volume of 36 μL with 50 mM glycine-NaOH buffer (pH 8.5) containing 5 μM Thioflavin T. Fluorescence signal was measured (excitation wavelength 450 nm, emission wavelength 485 nm, and slit widths set to 5 nm) on a monochromator-based multimode microplate reader ([…] M1000, TECAN, Hombrechtikon, Switzerland), adapted for 384-well microtiter plates. […] Each compound was examined in triplicate.

AChE = AChE (Homo sapiens, UniProt P22303); assay: AChE inhibition (data not shown); type: biochemical
[1] = Oxygen radical absorbance capacity with fluorescein (ORAC-FL) assay; conditions: compound 1 μM
Procedure: Oxidative stress is another crucial event in AD pathogenesis. In order to determine antioxidant activities of our synthetic compounds, the oxygen radical absorbance capacity method with fluorescein (ORAC-FL) assay was performed. with Trolox (6-hydroxy-2,5,7,8-tetramethylchroman-2-carboxylic acid) as the standard, and their antioxidant activity was expressed as Trolox equivalents.
The antioxidant activities of the compounds in vitro were determined by the oxygen radical absorbance capacity fluorescein (ORAC-FL) assay. The tested compounds and (±)-6-hydroxy-2,5,7,8-tetramethylchroman-2-carboxylic acid (Trolox) were dissolved in DMSO at a concentration of 10 mM, and then diluted with 75 mM potassium phosphate buffer (pH 7.4) to 50 μM and 10 μM for use. The fluorescein (FL) stock solution (3.4 mM) was diluted with the same buffer to 136 nM. All the assays were conducted with 75 mM potassium phosphate bufffer (pH 7.4), and the final reaction mixture was 200 μL.
The mixture of compounds (or buffer) (20 μL) and fluorescein (FL, 120 μL) were incubated for 15 min at 37 °C in a black 96-well plate. Then 2,2′-azobis-(amidino-propane)-dihydrochloride (AAPH) solution (60 μL, 40 mM) was rapidly added to the reaction mixture. The fluorescence was recorded every 5 min for 240 min at 485 nm (excitation wavelength) and 535 nm (emission wavelength) (Varioskan Flash Multimode Reader, Thermo Scientific, Waltham, MA, USA), and each sample was prepared and measured for three times independently. […] The net AUC for a sample was calculated using the expression net AUC = AUCsample − AUCblank, The ORAC-FL value of each sample was calculated using the equation of net AUCsample/(AUCTrolox – AUCblank), which was expressed as Trolox equivalents.

Aβ1–42 fibrils [2] = molecular target: T2, Aβ1–42 fibrils (Homo sapiens, UniProt P05067); assay: TEM assay of Aβ1–42 fibrils; type: biochemical; conditions: compound 20 μM
T2 construct: Aβ1–42 (Sigma, St. Louis, MO, USA; counterion, NaOH) stock solution was prepared by dissolving Aβ1–42 peptide in ammonium hydroxide; purchased Sigma
Procedure: To further complement the ThT binding assay, A transmission electron microscopy (TEM) assay was employed to monitor and clarify the effect of compound 6b1 on Aβ1−42 aggregation.
(§1) The ability of compound 6b1 to disaggregate self-induced Aβ1–42 aggregation fibrils was also investigated. Aβ1–42 fibrils were prepared by incubating fresh Aβ1–42 for 24 h at 37 °C, and the test compound was added to the sample and incubated for another 24 h at 37 °C. Then the sample was analyzed by ThT binding assay and TEM assay.
Aβ1–42 peptide (Sigma) was dissolved in 20 mM phosphate buffer (pH 7.4) at 4 °C to 100 μM before use.
Aβ1–42 was incubated at 37 °C for 24 h. Then, 40 μM tested compound was added and incubated at 37 °C for another 24 h. The final concentrations of Aβ1–42 and the compounds were 50 μM and 20 μM, respectively. After incubation, aliquots (5 μL) of the samples were placed on a carbon-coated copper/rhodium grid for 2 min at room temperature. Each grid was stained with uranyl acetate (1%, 5 μL) for 2 min. Excess staining solution was removed and the specimen was transferred for imaging with transmission electron microscopy (JEOL JEM-1400, Tokyo, Japan).

Aβ1–42 fibrils [3] = molecular target: T2, Aβ1–42 fibrils; assay: Disaggregation of self-induced Aβ1–42 aggregation fibrils (ThT binding assay); type: biochemical; conditions: compound 20 μM, fibrils formed 24 h, then 24 h with compound, 37 °C
Procedure: as §1

mice = assay: Step-down passive avoidance test, scopolamine-induced memory impairment; type: in vivo
Procedure: A step-down passive avoidance test was used to assess learning and memory in mice. The apparatus (Shanghai XinRuan, Shanghai, China) consisted of two identically sized compartments, with a guillotine door to separate light and dark. Illumination was available in the light box through LED lights at 250 lux. The mice underwent two separate trials: a training trial and a test trial 24 h later. For training trial, mice were initially placed in the light compartment and were allowed to explore the environment freely for 5 min so that they can be familiar with the environment. Then the door was opened, the mice tried to enter the dark compartment since they preferred to stay in dark place. As soon as the mice came into the dark compartment, an electrical shock was delivered through the steel rods. The training lasted for 5 min. […] The test trial was preformed after 24 h. The mice were placed into the light compartment and the door was opened. The time that the mouse spent to enter the dark compartment was recorded as the latency. The numbers that the mouse entered the dark compartment during 5 min were measured as error numbers.

T2 sequence (P05067 672-713): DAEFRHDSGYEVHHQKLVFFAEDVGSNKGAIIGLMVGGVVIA
T1 sequence (P05067 672-713): as above
Sequence of BuChE (P06276 29-602): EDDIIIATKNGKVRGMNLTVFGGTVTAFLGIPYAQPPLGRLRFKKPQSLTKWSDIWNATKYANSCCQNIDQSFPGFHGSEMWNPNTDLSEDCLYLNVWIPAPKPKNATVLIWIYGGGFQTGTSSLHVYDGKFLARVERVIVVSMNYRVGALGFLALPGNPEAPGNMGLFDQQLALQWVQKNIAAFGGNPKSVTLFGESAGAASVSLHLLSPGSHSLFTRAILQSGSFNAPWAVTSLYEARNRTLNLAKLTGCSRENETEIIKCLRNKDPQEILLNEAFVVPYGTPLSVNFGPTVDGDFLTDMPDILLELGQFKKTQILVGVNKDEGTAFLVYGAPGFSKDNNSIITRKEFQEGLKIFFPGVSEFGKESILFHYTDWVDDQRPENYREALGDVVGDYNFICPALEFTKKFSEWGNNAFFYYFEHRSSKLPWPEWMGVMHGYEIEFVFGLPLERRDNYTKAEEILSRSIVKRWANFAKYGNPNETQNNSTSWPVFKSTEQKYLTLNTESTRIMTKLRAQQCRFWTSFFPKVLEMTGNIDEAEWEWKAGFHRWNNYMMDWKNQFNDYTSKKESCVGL
Sequence of AChE (P22303 32-614): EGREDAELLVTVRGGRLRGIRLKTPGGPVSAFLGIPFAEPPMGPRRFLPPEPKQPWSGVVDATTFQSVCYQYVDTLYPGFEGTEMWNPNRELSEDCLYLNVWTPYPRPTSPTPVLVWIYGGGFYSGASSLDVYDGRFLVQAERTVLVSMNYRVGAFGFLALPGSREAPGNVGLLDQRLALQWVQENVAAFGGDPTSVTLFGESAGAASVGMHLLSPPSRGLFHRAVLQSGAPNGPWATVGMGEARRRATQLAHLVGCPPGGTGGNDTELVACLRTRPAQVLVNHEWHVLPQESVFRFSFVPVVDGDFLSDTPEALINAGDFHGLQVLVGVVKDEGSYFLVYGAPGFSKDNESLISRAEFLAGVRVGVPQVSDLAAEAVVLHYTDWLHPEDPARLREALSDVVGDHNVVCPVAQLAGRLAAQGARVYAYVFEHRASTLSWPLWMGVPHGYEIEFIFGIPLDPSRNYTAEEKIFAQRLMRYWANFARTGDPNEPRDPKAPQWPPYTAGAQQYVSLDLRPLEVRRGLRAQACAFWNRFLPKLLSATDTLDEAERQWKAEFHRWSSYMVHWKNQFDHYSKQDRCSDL

Which “Inhibitory activity toward BuChE” value (BuChE) does the source give for CCN(CC)c1ccc(/C=C/c2cc(NCCCN(C)C)c3ccccc3n2)cc1 [Compound 6b1, (E)-N^1-(2-(4-(Diethylamino)styryl)quinolin-4-yl)-N^3,N^3-dimethylpropane-1,3-diamine] here?
The value was “weak”.

What about the IC50 (Aβ1–42; ThT fluorescence method, mean ± SD of three experiments, read-out: IC50 against self-induced Aβ1–42 aggregation) of the same compound?
Its IC50 is 4.5 ± 0.7 µM.

And the inhibition at 20 µM (Aβ1–42; inhibitor 20 μM, Aβ1–42 50 μM, ThT, 37 °C, 72 h, mean ± SD)?
Its inhibition at 20 µM is 95.3 ± 1.2%.

What about the “Inhibitory activity toward AChE” value (AChE) of the same compound?
Its value is “weak”.

And the ORAC [1]?
Its ORAC is 6.23 ± 0.05 μmol of Trolox equivalents/μmol of tested compounds.

What about the “TEM: Aβ1–42 fibril formation in presence of compound” value (Aβ1–42 fibrils [2]; 37 °C, 24 h) of the same compound?
Its value is “only fewer thin fibrils and small bulk aggregates”.

And the “TEM: disaggregation of Aβ1–42 fibrils” value (Aβ1–42 fibrils [2]; preformed fibrils, 24 h at 37 °C)?
The value was “could disaggregate more Aβ1–42 fibrils than resveratrol”.

What about the “Disaggregation ratio of self-induced Aβ1–42 fibrils” value (Aβ1–42 fibrils [3]) of the same compound?
Its value is 64.3%.

What about the “Improvement of memory impairment compared with model group” value (mice; 4.0 mg/kg (low dose)) of the same compound?
Its value is “didn’t exhibit significant improvement”.

And the Latency time (mice; 16.0 mg/kg (high dose))?
The Latency time was 182 s.

What about the Number of errors (mice; 16.0 mg/kg (high dose)) of the same compound?
The Number of errors was 2.72.
